Earlier results, collected in PubChem BioAssay AID1259409 (Chemical Carcinogenesis Research Information System (CCRIS), 2018).

Tested on: rodent chemically induced tumor inhibition, incidence and multiplicity
Assay: CCRIS tumor inhibitor studies

For `C#CCN(C)[C@H](C)Cc1ccccc1`, the “tumour outcome (control, treated, inhibition, significance)” value (Carcinogen: 7,12-DIMETHYLBENZ[A]ANTHRACENE [57-97-6], Dose [Inhibitor]: 0.25 MG/KG BW/D FOR 4 WK BEGINNING 4 WK PRIOR TO FIRST CARCINOGEN DOSE (STUDY DURATION: 32 WK), Route [Inhibitor]: INTRAPERITONEAL, Species: RAT, Strain/Sex: SPRAGUE-DAWLEY/FEMALE, Target Tissue: Type of Lesion: MAMMARY GLAND: TUMOR, Dose [Carcinogen]: 10 MG IN 1 ML PEANUT OIL ONCE (STUDY DURATION: 32 WK), Promoter: NONE) is given as 13/15 (87%), 8/15 (53%), 39%, not significant, the “tumour outcome (control, treated, inhibition, significance)” value (Carcinogen: 7,12-DIMETHYLBENZ[A]ANTHRACENE [57-97-6], Dose [Inhibitor]: 0.25 MG/KG BW/D FOR 4 WK BEGINNING 4 WK PRIOR TO FIRST CARCINOGEN DOSE, FOLLOWED BY 0.25 MG/KG BW/D FOR 27 WK POST LAST, Route [Inhibitor]: INTRAPERITONEAL, Species: RAT, Strain/Sex: SPRAGUE-DAWLEY/FEMALE, Target Tissue: Type of Lesion: MAMMARY GLAND: TUMOR, Dose [Carcinogen]: 10 MG IN 1 ML PEANUT OIL ONCE (STUDY DURATION: 32 WK), Promoter: NONE) is given as 13/15 (87%), 9/15 (60%), 31%, not significant and the “tumour outcome (control, treated, inhibition, significance)” value (Carcinogen: 7,12-DIMETHYLBENZ[A]ANTHRACENE [57-97-6], Dose [Inhibitor]: 0.25 MG/KG BW/D FOR 27 WK BEGINNING 4 D POST LAST CARCINOGEN DOSE (STUDY DURATION: 32 WK), Route [Inhibitor]: INTRAPERITONEAL, Species: RAT, Strain/Sex: SPRAGUE-DAWLEY/FEMALE, Target Tissue: Type of Lesion: MAMMARY GLAND: TUMOR, Dose [Carcinogen]: 10 MG IN 1 ML PEANUT OIL ONCE (STUDY DURATION: 32 WK), Promoter: NONE) is given as 13/15 (87%), 10/15 (67%), 23%, not significant. The “tumour outcome (control, treated, inhibition, significance)” value (Carcinogen: 7,12-DIMETHYLBENZ[A]ANTHRACENE [57-97-6], Dose [Inhibitor]: 2.5 MG/KG BW/D FOR 4 WK BEGINNING 4 WK PRIOR TO FIRST CARCINOGEN DOSE (STUDY DURATION: 32 WK), Route [Inhibitor]: INTRAPERITONEAL, Species: RAT, Strain/Sex: SPRAGUE-DAWLEY/FEMALE, Target Tissue: Type of Lesion: MAMMARY GLAND: TUMOR, Dose [Carcinogen]: 10 MG IN 1 ML PEANUT OIL ONCE (STUDY DURATION: 32 WK), Promoter: NONE) was 13/15 (87%), 8/15 (53%), 39%, not significant, the “tumour outcome (control, treated, inhibition, significance)” value (Carcinogen: 7,12-DIMETHYLBENZ[A]ANTHRACENE [57-97-6], Dose [Inhibitor]: 2.5 MG/KG BW/D FOR 4 WK BEGINNING 4 WK PRIOR TO FIRST CARCINOGEN DOSE, FOLLOWED BY 2.5 MG/KG BW/D FOR 27 WK POST LAST CA, Route [Inhibitor]: INTRAPERITONEAL, Species: RAT, Strain/Sex: SPRAGUE-DAWLEY/FEMALE, Target Tissue: Type of Lesion: MAMMARY GLAND: TUMOR, Dose [Carcinogen]: 10 MG IN 1 ML PEANUT OIL ONCE (STUDY DURATION: 32 WK), Promoter: NONE) was 13/15 (87%), 5/15 (33%), 62%, p<0.0001 and the “tumour outcome (control, treated, inhibition, significance)” value (Carcinogen: 7,12-DIMETHYLBENZ[A]ANTHRACENE [57-97-6], Dose [Inhibitor]: 2.5 MG/KG BW/D FOR 27 WK BEGINNING 4 D POST LAST CARCINOGEN DOSE (STUDY DURATION: 32 WK), Route [Inhibitor]: INTRAPERITONEAL, Species: RAT, Strain/Sex: SPRAGUE-DAWLEY/FEMALE, Target Tissue: Type of Lesion: MAMMARY GLAND: TUMOR, Dose [Carcinogen]: 10 MG IN 1 ML PEANUT OIL ONCE (STUDY DURATION: 32 WK), Promoter: NONE) was 13/15 (87%), 6/15 (40%), 54%, p<0.0001.
In the case of `CC1=C(/C=C/C(C)=C/C=C/C(C)=C\C(=O)NCCCCO)C(C)(C)CCC1`, the “tumour outcome (control, treated, inhibition, significance)” value (Carcinogen: N-BUTYL-N-(4-HYDROXYBUTYL)NITROSAMINE, 3817-11-6, Dose [Inhibitor]: 1.5 MMOL/KG DIET DAILY FOR 133 D STARTING ONE WK AFTER THE FINAL CARCINOGEN DOSE (STUDY DURATION: 190 D), Route [Inhibitor]: ORAL, Species: MOUSE, Strain/Sex: BDF/MALE, Target Tissue: Type of Lesion: URINARY BLADDER: TRANSITIONAL CELL CARCINOMA, Dose [Carcinogen]: 7.5 MG 1/WK FOR 8 WK, Promoter: NONE USED) is listed as 21/100 (21%), 17/100 (17%), 20%, not significant and the “tumour outcome (control, treated, inhibition, significance)” value (Carcinogen: N-BUTYL-N-(4-HYDROXYBUTYL)NITROSAMINE, 3817-11-6, Dose [Inhibitor]: 1.5 MMOL/KG IN DIET FOR 133 D STARTING 1 WK AFTER LAST CARCINOGEN DOSE (STUDY DURATION: 190 D), Route [Inhibitor]: ORAL, Species: MOUSE, Strain/Sex: DBF1/MALE, Target Tissue: Type of Lesion: URINARY BLADDER: TRANSITIONAL CELL CARCINOMA, Dose [Carcinogen]: 7.5 MG 1/WK FOR 8 WK, Promoter: NONE USED) is listed as 21/100 (21%), 17/100 (17%), 19%, not significant.
In the case of `S=C=Nc1cc2c3ccccc3ccc2c2ccccc12`, the outcome (Carcinogen: BENZO[A]PYRENE, 50-32-8, Dose [Inhibitor]: 0, 5 UMOL IN ACETONE 4 HR PRIOR TO CARCINOGEN DOSE (STUDY DURATION: 20 WK), Route [Inhibitor]: DERMAL, Species: MOUSE, Strain/Sex: STRAIN-A/FEMALE, Target Tissue: Type of Lesion: SKIN: TUMOR, Dose [Carcinogen]: 0.1 UMOL IN ACETONE ONCE, Promoter: 12-O-TETRADECANOYLPHORBOL-13-ACETATE, 16561-29-8) is listed as 85%, 74%, 13%, not significant at 15 wk; 95%, 80%, 16%, not significant at 20 wk.
In the case of `COc1cc([C@H]2Oc3cc([C@H]4Oc5cc(O)cc(O)c5C(=O)[C@@H]4O)ccc3O[C@@H]2CO)ccc1O`, the outcome (Carcinogen: N-Butyl-N-(4-hydroxybutyl)nitrosamine, 3817-11-6, Dose [Inhibitor]: 200 mg/kg bw 1 wk before carcinogen, dose duration 51 wk, study duration 56 wk, Route [Inhibitor]: Oral (gavage) 5 d/wk, Species: Mouse, Strain/Sex: ICR/Male, Target Tissue: Type of Lesion: Urinary Bladder: carcinoma, Dose [Carcinogen]: 0, 0.5% in drinking water for 6 wk, Promoter: None) is listed as 52%, 4.1%, p=0.001.
In the case of `CC(=O)Nc1nnc(S(N)(=O)=O)s1`, the “tumour outcome (control, treated, inhibition, significance)” value (Carcinogen: N-BUTYL-N-(4-HYDROXYBUTYL)NITROSAMINE, 3817-11-6, Dose [Inhibitor]: 0.35% DIET DAILY FOR 34 WK STARTING AFTER CARCINOGEN TREATMENT (STUDY DURATION: 38 WK), Route [Inhibitor]: ORAL, Species: RAT, Strain/Sex: F344/MALE, Target Tissue: Type of Lesion: URINARY BLADDER: PAPILLOMA, Dose [Carcinogen]: 0.01% IN DRINKING WATER FOR 4 WK, Promoter: NONE USED) is given as 33%, 15%, 55%, not significant.
For `COc1cc(/C=C/C(=O)OCCc2ccccc2)ccc1O`, the “tumour outcome (control, treated, inhibition, significance)” value (Carcinogen: AZOXYMETHANE, 25843-45-2, Dose [Inhibitor]: 0, 750 PPM IN DIET FOR 56 WK BEGINNING 2 WK PRIOR TO CARCINOGEN TREATMENT (STUDY DURATION: 56 WK), Route [Inhibitor]: ORAL, Species: RAT, Strain/Sex: F344/MALE, Target Tissue: Type of Lesion: COLON: ADENOCARCINOMA, Dose [Carcinogen]: 15 MG/KG BW 1/WK FOR 2 WK, Promoter: NONE USED) is given as 81%, 43%, 47%, p<0.002, the “tumour outcome (control, treated, inhibition, significance)” value (Carcinogen: AZOXYMETHANE, 25843-45-2, Dose [Inhibitor]: 0, 750 PPM IN DIET FOR 56 WK BEGINNING 2 WK PRIOR TO CARCINOGEN TREATMENT (STUDY DURATION: 56 WK), Route [Inhibitor]: ORAL, Species: RAT, Strain/Sex: F344/MALE, Target Tissue: Type of Lesion: EAR DUCT: TUMOR, Dose [Carcinogen]: 15 MG/KG BW 1/WK FOR 2 WK, Promoter: NONE USED) is given as 25%, 0%, 100%, p<0.02 and the “tumour outcome (control, treated, inhibition, significance)” value (Carcinogen: AZOXYMETHANE, 25843-45-2, Dose [Inhibitor]: 0, 750 PPM IN DIET FOR 56 WK BEGINNING 2 WK PRIOR TO CARCINOGEN TREATMENT (STUDY DURATION: 56 WK), Route [Inhibitor]: ORAL, Species: RAT, Strain/Sex: F344/MALE, Target Tissue: Type of Lesion: SMALL INTESTINE: INVASIVE ADENOCARCINOMA, Dose [Carcinogen]: 15 MG/KG BW 1/WK FOR 2 WK, Promoter: NONE USED) is given as 16%, 10%, 38%, not significant.
For `O=C1OC(c2ccc(O)cc2)Cc2cccc(O)c21` (configuration not stated), the “tumour outcome (control, treated, inhibition, significance)” value (Carcinogen: AZOXYMETHANE [25843-45-2], Dose [Inhibitor]: 200 PPM IN DIET FOR 4 WK BEGINNING 1 WK PRIOR TO FIRST CARCINOGEN DOSE (STUDY DURATION: 35 WK), Route [Inhibitor]: ORAL, Species: RAT, Strain/Sex: F344/MALE, Target Tissue: Type of Lesion: COLON: ADENOMA, Dose [Carcinogen]: 15 MG/KG BW 1X/WK FOR 3 WK (STUDY DURATION: 35 WK), Promoter: NONE) is listed as 6/28 (21%), 2/29 (7%), 67%, not significant, the “tumour outcome (control, treated, inhibition, significance)” value (Carcinogen: AZOXYMETHANE [25843-45-2], Dose [Inhibitor]: 200 PPM IN DIET FOR 4 WK BEGINNING 1 WK PRIOR TO FIRST CARCINOGEN DOSE (STUDY DURATION: 35 WK), Route [Inhibitor]: ORAL, Species: RAT, Strain/Sex: F344/MALE, Target Tissue: Type of Lesion: COLON: CARCINOMA, Dose [Carcinogen]: 15 MG/KG BW 1X/WK FOR 3 WK (STUDY DURATION: 35 WK), Promoter: NONE) is listed as 8/28 (29%), 10/29 (34%), -17%, not significant and the “tumour outcome (control, treated, inhibition, significance)” value (Carcinogen: AZOXYMETHANE [25843-45-2], Dose [Inhibitor]: 200 PPM IN DIET FOR 4 WK BEGINNING 1 WK PRIOR TO FIRST CARCINOGEN DOSE (STUDY DURATION: 35 WK), Route [Inhibitor]: ORAL, Species: RAT, Strain/Sex: F344/MALE, Target Tissue: Type of Lesion: SMALL INTESTINE: CARCINOMA, Dose [Carcinogen]: 15 MG/KG BW 1X/WK FOR 3 WK (STUDY DURATION: 35 WK), Promoter: NONE) is listed as 7/28 (25%), 4/29 (14%), 44%, not significant.
